According to the supplement of paper PMC4862054:
“And” between values parts separate entries of the source, which are not always exact repeats. Identical values can stand only once.

Tested on: MDA-MB-231
Test: normalised viability (% of control), CellTiter-Blue; higher = more viable cells (about 100 = DMSO control)
Conditions: 10000 nM; incubation time: 72 h
Procedure, shortened: (§1)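 Breast cancer cell lines in 20 µl suspension were seeded onto 384-well plates pre-loaded with compound dissolved in 5 µl medium, then incubated 72 h. CellTiter-Blue reagent (2.5 µl) was added for 2 h at 37 °C and fluorescence read at 560/590 nm. Each plate was normalised to vehicle (100) and a positive kill control (0), with Z'-factor quality control. The value is normalised viability at one listed concentration of the series.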

| SMILES | normalised viability |
| --- | --- |
| Nc1ncn([C@H]2C[C@H](O)[C@@H](CO)O2)c(=O)n1 [Decitabine] | 69.8% and 71.6% |
| CCN(CC)CCCC(C)Nc1c2ccc(Cl)cc2nc2ccc(OC)cc12 (stereo unspecified) [Mepacrine] | 7.28% |
| Nc1nc2[nH]cc(CCc3ccc(C(=O)N[C@@H](CCC(=O)O)C(=O)O)cc3)c2c(=O)[nH]1 [Pemetrexed] | 92.4% |
| COc1cc([C@@H]2c3cc4c(cc3[C@@H](O[C@@H]3O[C@@H]5CO[C@@H](c6cccs6)O[C@H]5[C@H](O)[C@H]3O)[C@H]3COC(=O)[C@H]23)OCO4)cc(OC)c1O [Teniposide] | 13.8% |
| COc1cc2nccc(Oc3ccc(NC(=O)Nc4cc(C)on4)c(Cl)c3)c2cc1OC [Tivozanib] | 43.1% |
| O=C(Cc1ccc(-c2ccc(OCCN3CCOCC3)cc2)cn1)NCc1ccccc1 [KX2-391] | 16.3% |
| Nc1ccccc1NC(=O)c1ccc(CNC(=O)OCc2cccnc2)cc1 [Entinostat] | 37.7% |
| C=CC(=O)Nc1cc2c(Nc3ccc(F)c(Cl)c3)ncnc2cc1OCCCN1CCOCC1 [Canertinib] | 6.79% |
| CC[C@H](Nc1ncnc2[nH]cnc12)c1nc2cccc(F)c2c(=O)n1-c1ccccc1 [CAL-101] | 80.5% |

Tested on: MDA-MB-436
Test: as above
Conditions: 0.25 nM; incubation time: 72 h
Procedure, shortened: as §1

| SMILES | normalised viability |
| --- | --- |
| CC(=O)Nc1cccc(-n2c(=O)n(C3CC3)c(=O)c3c(Nc4ccc(I)cc4F)n(C)c(=O)c(C)c32)c1 | 104% |

Same assay, conditions: 0.99 nM; incubation time: 72 h

| SMILES | normalised viability |
| --- | --- |
| CCN(CC)CCCC(C)Nc1c2ccc(Cl)cc2nc2ccc(OC)cc12 (stereo unspecified) [Mepacrine] | 109% |

Same assay, conditions: 1 nM; incubation time: 72 h

| SMILES | normalised viability |
| --- | --- |
| O=C(/C=C/c1cccnc1)NCCCCC1CCN(C(=O)c2ccccc2)CC1 [FK-866] | 96.2% |
| CC[C@@H]1C(=O)N(C)c2cnc(Nc3ccc(C(=O)NC4CCN(C)CC4)cc3OC)nc2N1C1CCCC1 [BI 2536] | 95.7% |

Same assay, conditions: 10 nM; incubation time: 72 h

| SMILES | normalised viability |
| --- | --- |
| Nc1ncn([C@H]2C[C@H](O)[C@@H](CO)O2)c(=O)n1 [Decitabine] | 85% and 75% |
| CCN(CC)CCCC(C)Nc1c2ccc(Cl)cc2nc2ccc(OC)cc12 (stereo unspecified) [Mepacrine] | 101% |
| Nc1nc2[nH]cc(CCc3ccc(C(=O)N[C@@H](CCC(=O)O)C(=O)O)cc3)c2c(=O)[nH]1 [Pemetrexed] | 107% |
| COc1cc([C@@H]2c3cc4c(cc3[C@@H](O[C@@H]3O[C@@H]5CO[C@@H](c6cccs6)O[C@H]5[C@H](O)[C@H]3O)[C@H]3COC(=O)[C@H]23)OCO4)cc(OC)c1O [Teniposide] | 92.1% |
| COc1cc2nccc(Oc3ccc(NC(=O)Nc4cc(C)on4)c(Cl)c3)c2cc1OC [Tivozanib] | 101% |
| O=C(Cc1ccc(-c2ccc(OCCN3CCOCC3)cc2)cn1)NCc1ccccc1 [KX2-391] | 98.3% |
| Nc1ccccc1NC(=O)c1ccc(CNC(=O)OCc2cccnc2)cc1 [Entinostat] | 115% |
| C=CC(=O)Nc1cc2c(Nc3ccc(F)c(Cl)c3)ncnc2cc1OCCCN1CCOCC1 [Canertinib] | 139% |
| CC[C@H](Nc1ncnc2[nH]cnc12)c1nc2cccc(F)c2c(=O)n1-c1ccccc1 [CAL-101] | 111% |

Same assay, conditions: 25 nM; incubation time: 72 h

| SMILES | normalised viability |
| --- | --- |
| CC(=O)Nc1cccc(-n2c(=O)n(C3CC3)c(=O)c3c(Nc4ccc(I)cc4F)n(C)c(=O)c(C)c32)c1 | 97.8% |

Same assay, conditions: 99 nM; incubation time: 72 h

| SMILES | normalised viability |
| --- | --- |
| CCN(CC)CCCC(C)Nc1c2ccc(Cl)cc2nc2ccc(OC)cc12 (stereo unspecified) [Mepacrine] | 105% |

Same assay, conditions: 100 nM; incubation time: 72 h

| SMILES | normalised viability |
| --- | --- |
| O=C(/C=C/c1cccnc1)NCCCCC1CCN(C(=O)c2ccccc2)CC1 [FK-866] | 23.5% |
| CC[C@@H]1C(=O)N(C)c2cnc(Nc3ccc(C(=O)NC4CCN(C)CC4)cc3OC)nc2N1C1CCCC1 [BI 2536] | 65.3% |

Same assay, conditions: 250 nM; incubation time: 72 h

| SMILES | normalised viability |
| --- | --- |
| CC(=O)Nc1cccc(-n2c(=O)n(C3CC3)c(=O)c3c(Nc4ccc(I)cc4F)n(C)c(=O)c(C)c32)c1 | 95% |

Same assay, conditions: 990 nM; incubation time: 72 h

| SMILES | normalised viability |
| --- | --- |
| CCN(CC)CCCC(C)Nc1c2ccc(Cl)cc2nc2ccc(OC)cc12 (stereo unspecified) [Mepacrine] | 33% |

Same assay, conditions: 1000 nM; incubation time: 72 h

| SMILES | normalised viability |
| --- | --- |
| Nc1ncn([C@H]2C[C@H](O)[C@@H](CO)O2)c(=O)n1 [Decitabine] | 69.6% and 68.2% |
| O=C(/C=C/c1cccnc1)NCCCCC1CCN(C(=O)c2ccccc2)CC1 [FK-866] | 17.7% |
| CC[C@@H]1C(=O)N(C)c2cnc(Nc3ccc(C(=O)NC4CCN(C)CC4)cc3OC)nc2N1C1CCCC1 [BI 2536] | 78.5% |
| CCN(CC)CCCC(C)Nc1c2ccc(Cl)cc2nc2ccc(OC)cc12 (stereo unspecified) [Mepacrine] | 81.4% |
| Nc1nc2[nH]cc(CCc3ccc(C(=O)N[C@@H](CCC(=O)O)C(=O)O)cc3)c2c(=O)[nH]1 [Pemetrexed] | 75.3% |
| COc1cc([C@@H]2c3cc4c(cc3[C@@H](O[C@@H]3O[C@@H]5CO[C@@H](c6cccs6)O[C@H]5[C@H](O)[C@H]3O)[C@H]3COC(=O)[C@H]23)OCO4)cc(OC)c1O [Teniposide] | 55.1% |
| COc1cc2nccc(Oc3ccc(NC(=O)Nc4cc(C)on4)c(Cl)c3)c2cc1OC [Tivozanib] | 97.1% |
| O=C(Cc1ccc(-c2ccc(OCCN3CCOCC3)cc2)cn1)NCc1ccccc1 [KX2-391] | 56.6% |
| Nc1ccccc1NC(=O)c1ccc(CNC(=O)OCc2cccnc2)cc1 [Entinostat] | 96% |
| C=CC(=O)Nc1cc2c(Nc3ccc(F)c(Cl)c3)ncnc2cc1OCCCN1CCOCC1 [Canertinib] | 43.5% |
| CC[C@H](Nc1ncnc2[nH]cnc12)c1nc2cccc(F)c2c(=O)n1-c1ccccc1 [CAL-101] | 107% |

Same assay, conditions: 10000 nM; incubation time: 72 h

| SMILES | normalised viability |
| --- | --- |
| Nc1ncn([C@H]2C[C@H](O)[C@@H](CO)O2)c(=O)n1 [Decitabine] | 70.5% and 71.4% |
| CCN(CC)CCCC(C)Nc1c2ccc(Cl)cc2nc2ccc(OC)cc12 (stereo unspecified) [Mepacrine] | 9.64% |
| Nc1nc2[nH]cc(CCc3ccc(C(=O)N[C@@H](CCC(=O)O)C(=O)O)cc3)c2c(=O)[nH]1 [Pemetrexed] | 82.5% |
| COc1cc([C@@H]2c3cc4c(cc3[C@@H](O[C@@H]3O[C@@H]5CO[C@@H](c6cccs6)O[C@H]5[C@H](O)[C@H]3O)[C@H]3COC(=O)[C@H]23)OCO4)cc(OC)c1O [Teniposide] | 23.6% |
| COc1cc2nccc(Oc3ccc(NC(=O)Nc4cc(C)on4)c(Cl)c3)c2cc1OC [Tivozanib] | 72.4% |
| O=C(Cc1ccc(-c2ccc(OCCN3CCOCC3)cc2)cn1)NCc1ccccc1 [KX2-391] | 39.2% |
| Nc1ccccc1NC(=O)c1ccc(CNC(=O)OCc2cccnc2)cc1 [Entinostat] | 52.8% |
| C=CC(=O)Nc1cc2c(Nc3ccc(F)c(Cl)c3)ncnc2cc1OCCCN1CCOCC1 [Canertinib] | 10.5% |
| CC[C@H](Nc1ncnc2[nH]cnc12)c1nc2cccc(F)c2c(=O)n1-c1ccccc1 [CAL-101] | 95.7% |

Tested on: MDA-MB-453
Test: as above
Conditions: 0.075 nM; incubation time: 72 h
Procedure, shortened: as §1

| SMILES | normalised viability |
| --- | --- |
| CC(=O)Nc1cccc(-n2c(=O)n(C3CC3)c(=O)c3c(Nc4ccc(I)cc4F)n(C)c(=O)c(C)c32)c1 | 107% |

Same assay, conditions: 0.297 nM; incubation time: 72 h

| SMILES | normalised viability |
| --- | --- |
| CCN(CC)CCCC(C)Nc1c2ccc(Cl)cc2nc2ccc(OC)cc12 (stereo unspecified) [Mepacrine] | 106% |

Same assay, conditions: 0.3 nM; incubation time: 72 h

| SMILES | normalised viability |
| --- | --- |
| O=C(/C=C/c1cccnc1)NCCCCC1CCN(C(=O)c2ccccc2)CC1 [FK-866] | 111% |
